Experimental data published in patent US20240391941A1, “NAPHTHYRIDINONE DERIVATIVES FOR THE TREATMENT OF A DISEASE OR DISORDER” (Novartis AG, priority 2023, published 2024).

How the values were obtained:
GIRK1/4 = molecular target: T1, GIRK1/4 (Homo sapiens, UniProt P48544+P48549); assay: GIRK1/4 in vitro activity assay (IonWorks Quattro population patch clamp); format: cell-based; details: GIRK 1/4 HEK293 stable cells, inward potassium current; read-out: inhibitory activity (IC50)
T1 sequence (P48549 1-501): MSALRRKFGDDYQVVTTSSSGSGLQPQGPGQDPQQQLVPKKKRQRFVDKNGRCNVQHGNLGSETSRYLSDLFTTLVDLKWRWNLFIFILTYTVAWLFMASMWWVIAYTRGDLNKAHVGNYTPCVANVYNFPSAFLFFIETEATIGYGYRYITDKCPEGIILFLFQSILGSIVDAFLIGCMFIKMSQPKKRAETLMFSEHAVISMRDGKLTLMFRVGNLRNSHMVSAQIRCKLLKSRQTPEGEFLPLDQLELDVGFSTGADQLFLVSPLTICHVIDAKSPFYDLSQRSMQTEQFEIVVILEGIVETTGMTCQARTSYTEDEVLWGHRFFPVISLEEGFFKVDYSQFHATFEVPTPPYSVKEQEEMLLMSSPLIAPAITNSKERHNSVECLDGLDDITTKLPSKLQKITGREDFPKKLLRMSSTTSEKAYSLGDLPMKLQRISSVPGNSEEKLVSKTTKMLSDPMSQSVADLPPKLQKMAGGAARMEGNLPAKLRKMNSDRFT
T1 sequence (P48544 1-419): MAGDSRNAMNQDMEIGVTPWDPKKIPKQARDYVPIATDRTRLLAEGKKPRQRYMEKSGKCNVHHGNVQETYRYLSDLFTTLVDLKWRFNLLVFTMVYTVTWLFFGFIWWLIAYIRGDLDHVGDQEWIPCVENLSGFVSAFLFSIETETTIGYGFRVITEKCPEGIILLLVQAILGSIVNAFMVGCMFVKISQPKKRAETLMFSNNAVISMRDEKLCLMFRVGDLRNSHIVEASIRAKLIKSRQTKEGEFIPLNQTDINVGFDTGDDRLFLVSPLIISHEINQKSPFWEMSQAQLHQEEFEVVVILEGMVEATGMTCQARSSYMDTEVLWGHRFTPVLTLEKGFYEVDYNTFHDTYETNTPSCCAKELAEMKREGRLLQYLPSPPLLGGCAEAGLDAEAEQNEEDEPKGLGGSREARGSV
Method: The GIRK1/4 activity of the parent compounds formed after cleavage upon hydrolysis of the phosphoric acid ester group of the compounds according to the present disclosure was assessed by the following in vitro method.
• a. External buffer: 10 mM NaCl, 50 mM Na Gluconate, 80 mM K Gluconate, 1.8 mM CaCl2, 1 mM MgCl2, 10 mM HEPES, 10 mM Glucose, pH 7.4; osmolarity […]. • b. Internal buffer: 30 mM KCl, 100 mM K Gluconate, 1 mM MgCl2, 10 mM HEPES, 1 mM EGTA, 10 mM NaCl, pH 7.2; osmolarity […].
• c. Prepare seven-fold compound dilution series (10 mM to 20 μM) in 100% DMSO, in 384-well polypropylene plates. • d. Propafenone (Sigma Aldrich, catalog number P4670) was used as a positive control and DMSO for neutral control. • e. Resuspend 1 μl of compounds in DMSO into 66.7 μl external buffer in 384-well polypropylene plate and load into Plate 1 section of Molecular Devices Quattro.
• f. […]
Quattro was controlled using IonWorks v2 software to perform the following steps: • p. […] Measured magnitude of inward potassium current at time point between 1200-1220 ms from start of Pulse 1 (i.e. during the voltage ramp phase). • t. […]
IC50 values were calculated by plotting the percentage of current inhibition (normalized to the DMSO-only control) as a function of compound concentration using standard data analysis software.

[1] = In vitro conversion of pro-drug to parent compound by intestinal S9 fraction (human); format: in vitro ADME; details: pooled intestinal S9 fraction, 37° C., read-out: T1/2 of conversion to the parent compound
Method: (§1) Drug stock solutions (100 μM) were prepared in methanol by two subsequent 1:10 dilutions from 10 mM DMSO drug solutions.
(§2) Frozen pooled intestinal S9 fractions (final protein concentration 2 mg/mL), alamethicin (25 μg/mg). 0.IM phosphate buffer containing 1 mM magnesium chloride and NADPH (final concentration 1 mM) plus UDPGA (final concentration 3.5 mM) are pre incubated at 37° C. prior to the addition of test compound (final substrate concentration 1 μM; final DMSO concentration 0.25%) to initiate the reaction. An additional incubation is performed in the absence of cofactors (NADPH, UDPGA).
(§3) Incubation plate was incubated on a shaker with temperature controlled at 37° C. Sequential samples were removed at designated timepoints (0, 5, 15, 30, 60 and 120 mins) and quenched with 4 volumes of ice-cold acetonitrile (containing internal standard glyburide). At the end of the incubation, samples plates were centrifuged, and supernatants reconstituted in water. Samples were then analyzed by LC/MS to assess parent depletion.
(§4) A ratio of compound peak area/internal standard peak area for each time point is generated and subsequently expressed as % of the response at time 0. The percentage stability of a compound in intestinal S9 solution at time t is calculated as detailed in Equation 1: […]
(§5) The half-life (t1/2) is calculated using the Equation 2: […]

[2] = In vitro conversion of pro-drug to parent compound by intestinal S9 fraction (rat); format: in vitro ADME; details: Sprague-Dawley, pooled intestinal S9 fraction, 37° C., read-out: T1/2 of conversion to the parent compound
Method: as §1, §2, §3, §4, §5

[3] = In vitro conversion of pro-drug to parent compound by intestinal S9 fraction (dog); format: in vitro ADME; details: beagle, pooled intestinal S9 fraction, 37° C., read-out: T1/2 of conversion to the parent compound
Method: as §1, §2, §3, §4, §5

| SMILES | IC50 (GIRK1/4) [µM] | half-life at 1 μM ([1]; human intestinal S9, + cofactor (NADPH, UDPGA)) [min] | half-life at 1 μM ([1]; human intestinal S9, − cofactor) [min] | half-life at 1 μM ([2]; rat intestinal S9, + cofactor (NADPH, UDPGA)) [min] | half-life at 1 μM ([2]; rat intestinal S9, − cofactor) [min] | half-life at 1 μM ([3]; dog intestinal S9, + cofactor (NADPH, UDPGA)) [min] | half-life at 1 μM ([3]; dog intestinal S9, − cofactor) [min] |
| --- | --- | --- | --- | --- | --- | --- | --- |
| CNC(=O)[C@@H](O)COc1ncc(Cl)c2c1c(=O)cc(C)n2-c1c(Cl)cc(OCCOP(=O)(O)O)cc1Cl [Example 1, (S)-2-(3,5-dichloro-4-(8-chloro-5-(2-hydroxy-3-(methylamino)-3-oxopropoxy)-2-methyl-4-oxo-1,6-naphthyridin-1 (4H)-yl)phenoxy)ethyl dihydrogen phosphate] | > 10 | – | – | – | – | – | – |
| CNC(=O)[C@@H](O)COc1ncc(Cl)c2c1c(=O)cc(C)n2-c1c(Cl)cc(OCCOP(=O)(O)O)cc1Cl.[Ca] [Example 1a, (S)-2-(3,5-dichloro-4-(8-chloro-5-(2-hydroxy-3-(methylamino)-3-oxopropoxy)-2-methyl-4-oxo-1,6-naphthyridin-1(4H)-yl)phenoxy)ethyl dihydrogen phosphate calcium salt] | – | 88.7 | 86.7 | 14.4 | 16.5 | 45.3 | 46 |
| CNC(=O)[C@H](COc1ncc(Cl)c2c1c(=O)cc(C)n2-c1c(Cl)cc(OCCO)cc1Cl)OP(=O)(O)O [Example 2, (S)-3-((8-chloro-1-(2,6-dichloro-4-(2-hydroxyethoxy)phenyl)-2-methyl-4-oxo-1,4-dihydro-1,6-naphthyridin-5-yl)oxy)-1-(methylamino)-1-oxopropan-2-yl dihydrogen phosphate] | > 10 | – | – | – | – | – | – |
